# Columns and labels:
# [1] = target: T1, human TLR7 (Homo sapiens, UniProt Q9NYK1); test: human TLR7-specific reporter gene assay; type: cell-based
# T1 sequence (Q9NYK1 27-1049): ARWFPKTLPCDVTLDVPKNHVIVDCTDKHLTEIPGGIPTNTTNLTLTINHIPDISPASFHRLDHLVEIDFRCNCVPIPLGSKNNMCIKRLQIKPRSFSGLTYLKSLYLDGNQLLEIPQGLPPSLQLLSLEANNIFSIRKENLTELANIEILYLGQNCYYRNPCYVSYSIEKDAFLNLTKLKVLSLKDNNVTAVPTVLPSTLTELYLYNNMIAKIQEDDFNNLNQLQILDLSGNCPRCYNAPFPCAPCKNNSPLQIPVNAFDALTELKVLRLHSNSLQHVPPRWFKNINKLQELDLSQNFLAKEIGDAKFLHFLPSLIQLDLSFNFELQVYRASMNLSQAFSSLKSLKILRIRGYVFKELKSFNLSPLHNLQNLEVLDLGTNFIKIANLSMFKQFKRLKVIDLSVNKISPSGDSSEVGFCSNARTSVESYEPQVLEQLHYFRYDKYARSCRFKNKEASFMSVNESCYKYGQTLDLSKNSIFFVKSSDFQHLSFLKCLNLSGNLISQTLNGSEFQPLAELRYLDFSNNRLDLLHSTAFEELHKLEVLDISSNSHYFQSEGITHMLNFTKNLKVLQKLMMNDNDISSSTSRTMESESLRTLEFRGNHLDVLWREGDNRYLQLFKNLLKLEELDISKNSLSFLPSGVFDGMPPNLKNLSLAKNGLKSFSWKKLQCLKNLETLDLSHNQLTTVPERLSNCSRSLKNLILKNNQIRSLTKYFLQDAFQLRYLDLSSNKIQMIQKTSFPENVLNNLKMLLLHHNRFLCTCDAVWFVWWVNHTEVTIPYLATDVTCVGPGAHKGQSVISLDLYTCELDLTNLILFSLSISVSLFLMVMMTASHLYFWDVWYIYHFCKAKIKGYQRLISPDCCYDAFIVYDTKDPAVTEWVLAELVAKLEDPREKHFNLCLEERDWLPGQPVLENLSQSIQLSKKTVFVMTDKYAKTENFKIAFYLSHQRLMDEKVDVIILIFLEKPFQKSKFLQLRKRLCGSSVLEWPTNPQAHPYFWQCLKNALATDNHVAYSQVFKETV
# [2] = test system: human PBMCs; test: Induction of IFN-α, IFN-γ, IL-12 and IL-18 in human PBMCs, ELISA; type: cell-based
# [3] = aqueous solubility; type: physicochemical
TLR7-agonistic activity (in words) [1],aqueous solubility [3],Compound,"Th1-biased cytokine induction (IFN-α, IFN-γ, IL-12, IL-18) [2]"
completely inactive,–,CCCCc1nc2c(N)nc3ccccc3c2n1Cc1ccc(CNC(=O)CCN2C(=O)CC(SC[C@@H](NC(=O)CC[C@@H](N)C(=O)O)C(=O)NCC(=O)O)C2=O)cc1 (stereo partly shown) [6a],–
–,excellent,CCCCc1nc2c(N)nc3ccccc3c2n1Cc1ccc(CN)cc1 [compound 1],prominent Th1 bias
active,–,CCCCc1nc2c(N)nc3ccccc3c2n1Cc1ccc(CNC(=S)NCC(=O)NCC(=O)NCC(=O)OC)cc1 [compound 3],–

# Reference: paper PMC3098923 (Bioorganic & medicinal chemistry letters, 2011)
